Experimental data reported in PMC9151520 (Archives of Toxicology, 2022).
“And” between values parts separate entries of the source, which are not always exact repeats. Identical values can stand only once. Counter-ions that a name gives are not always drawn. Like-named read-outs stand apart in the source and are kept apart here.

Experiments:
[1] = tested on: p53RE-bla HCT-116 cells
[2] = tested on: p53 signaling (p53RE-bla HCT-116 cells)
[3] = tested on: p53 signaling (p53RE-bla HCT-116 cells); assay: cells; assay type: cell-based
[4] = tested on: p53 signaling (p53RE-bla HCT-116 cells); settings: for EC50: read-out: p53 activation EC50, HLM
[5] = read-out: p53 activation EC50, cherry pick confirmation
[6] = read-out: p53 activation EC50, primary screening
[7] = Homo sapiens, HCT-116, read-out: p53 activation efficacy, primary screening
[8] = Homo sapiens, HCT-116, read-out: Efficacy, p53 activation, primary screening
[9] = Homo sapiens, HCT-116, read-out: Efficacy, p53 activation, cherry pick confirmation
[10] = read-out: EC50, p53 activation, primary screening

CC(=O)Nc1ccn(C2COC(COC(=O)c3ccccc3)O2)c(=O)n1 (centres unmarked)
Viability EC50, cherry pick confirmation [1]: inactive
Viability EC50, primary screening [1]: inactive
Viability efficacy, cherry pick confirmation [1]: inactive
Viability efficacy, primary screening [1]: inactive
p53 activation EC50, cherry pick confirmation [2]: inactive
p53 activation EC50, primary screening [2]: inactive
p53 activation efficacy, cherry pick confirmation [2]: inactive
p53 activation efficacy, primary screening [2]: inactive
p53 activation efficacy, cherry pick confirmation [3]: 43.9867
p53 activation efficacy, primary screening [3]: 52.8473
EC50 [3, 5]: 9.43 µM
EC50 [3, 6]: 2.5 µM
p53 activation EC50, cherry pick confirmation [4]: inactive
p53 activation EC50, primary screening [4]: inactive
p53 activation efficacy, cherry pick confirmation [4]: inactive
p53 activation efficacy, primary screening [4]: inactive

Potassium dichromate
Viability EC50, cherry pick confirmation [1]: inactive
Viability EC50, primary screening [1]: inactive
EC50 ([1]; read-out: Viability EC50, cherry pick confirmation): 34.6 µM and 20.2 µM
EC50 ([1]; read-out: Viability EC50, primary screening): 21.3 µM and 31 µM
p53 activation EC50, cherry pick confirmation [2]: inactive
p53 activation EC50, primary screening [2]: inactive
p53 activation efficacy, cherry pick confirmation [2]: inactive
p53 activation efficacy, primary screening [2]: inactive
p53 activation efficacy, primary screening [3]: 47.8443
EC50 [3, 5]: 14.9 µM
EC50 [3, 6]: 8.27 µM
p53 activation EC50, cherry pick confirmation [4]: inactive
p53 activation EC50, primary screening [4]: inactive
p53 activation efficacy, cherry pick confirmation [4]: inactive
p53 activation efficacy, primary screening [4]: inactive

CC/C(=C(/CC)c1ccc(O)cc1)c1ccc(O)cc1 [Diethylstilbestrol]
Viability EC50, cherry pick confirmation [1]: inactive
Viability EC50, primary screening [1]: inactive
Viability efficacy, cherry pick confirmation [1]: inactive
p53 activation EC50, cherry pick confirmation [2]: inactive
p53 activation EC50, primary screening [2]: inactive
p53 activation efficacy, cherry pick confirmation [2]: inactive
p53 activation efficacy, primary screening [2]: inactive
p53 activation EC50, cherry pick confirmation [3]: inactive
p53 activation efficacy, cherry pick confirmation [3]: inactive
Emax [3, 7]: 42.5%
p53 activation EC50, cherry pick confirmation [4]: inactive
p53 activation EC50, primary screening [4]: inactive
p53 activation efficacy, cherry pick confirmation [4]: inactive
p53 activation efficacy, primary screening [4]: inactive

CO/C=C(/C(=O)OC)c1ccccc1COc1cccc(C(F)(F)F)n1 [Picoxystrobin]
Viability EC50, cherry pick confirmation [1]: inactive
Viability EC50, primary screening [1]: inactive
Viability efficacy, cherry pick confirmation [1]: inactive
Viability efficacy, primary screening [1]: inactive
p53 activation EC50, cherry pick confirmation [2]: inactive
p53 activation EC50, primary screening [2]: inactive
p53 activation efficacy, cherry pick confirmation [2]: inactive
p53 activation efficacy, primary screening [2]: inactive
p53 activation efficacy, cherry pick confirmation [3]: 51.0407
p53 activation efficacy, primary screening [3]: 42.314
EC50 [3, 5]: 12.5 µM
EC50 [3, 6]: 4.78 µM
p53 activation EC50, cherry pick confirmation [4]: inactive
p53 activation EC50, primary screening [4]: inactive
p53 activation efficacy, cherry pick confirmation [4]: inactive
p53 activation efficacy, primary screening [4]: inactive

Oc1ccc(OCc2ccccc2)cc1 [4-(Benzyloxyl)phenol]
Viability EC50, cherry pick confirmation [1]: inactive
Viability EC50, primary screening [1]: inactive
Viability efficacy, cherry pick confirmation [1]: inactive
Viability efficacy, primary screening [1]: inactive
p53 activation EC50, cherry pick confirmation [2]: inactive
p53 activation EC50, primary screening [2]: inactive
p53 activation efficacy, cherry pick confirmation [2]: inactive
p53 activation efficacy, primary screening [2]: inactive
EC50 ([3]; Homo sapiens, HCT-116, read-out: p53 activation EC50, cherry pick confirmation): 14 µM
EC50 ([3]; Homo sapiens, HCT-116, read-out: p53 activation EC50, primary screening): 18.6 µM
Emax ([3]; Homo sapiens, HCT-116, read-out: p53 activation efficacy, cherry pick confirmation): 39%
Emax [3, 7]: 33.5%
p53 activation EC50, cherry pick confirmation [4]: inactive
p53 activation EC50, primary screening [4]: inactive
p53 activation efficacy, cherry pick confirmation [4]: inactive
p53 activation efficacy, primary screening [4]: inactive

Phenylmercuric acetate
p53 activation EC50, RLM [2]: inactive
p53 activation Efficacy, RLM [2]: inactive
p53 activation Efficacy, No MS [3]: 66.4107% and 63.4503%
p53 activation EC50, HLM [4]: inactive
EC50 [4]: 12.5 µM

Nc1cc(Cl)ccc1O [2-Amino-4-chlorophenol]
EC50, viability, cherry pick confirmation [1]: inactive
EC50, viability, primary screening [1]: inactive
Efficacy, viability, cherry pick confirmation [1]: inactive
Efficacy, viability, primary screening [1]: inactive
EC50, p53 activation, cherry pick confirmation [2]: inactive
EC50, p53 activation, primary screening [2]: inactive
Efficacy, p53 activation, cherry pick confirmation [2]: inactive
Efficacy, p53 activation, primary screening [2]: inactive
EC50, p53 activation, cherry pick confirmation [3]: inactive
Efficacy, p53 activation, cherry pick confirmation [3]: inactive
EC50 ([3]; Homo sapiens, HCT-116, read-out: EC50, p53 activation, primary screening): 38.2 µM
Emax [3, 8]: 53.8%
EC50, p53 activation, cherry pick confirmation [4]: inactive
EC50, p53 activation, primary screening [4]: inactive
Efficacy, p53 activation, cherry pick confirmation [4]: inactive
Efficacy, p53 activation, primary screening [4]: inactive

Oc1c(Cl)cc(Cl)cc1Sc1cc(Cl)cc(Cl)c1O [Bithionol]
EC50, p53 activation, cherry pick confirmation [2]: inactive
EC50, p53 activation, primary screening [2]: inactive
Efficacy, p53 activation, cherry pick confirmation [2]: inactive
Efficacy, p53 activation, primary screening [2]: inactive
Efficacy, p53 activation, primary screening [3]: 93.9867
EC50 ([3]; Homo sapiens, HCT-116, read-out: EC50, p53 activation, cherry pick confirmation): 20.3 µM
Emax [3, 9]: 74%
EC50 [3, 10]: 39.6 µM
EC50, p53 activation, cherry pick confirmation [4]: inactive
EC50, p53 activation, primary screening [4]: inactive
Efficacy, p53 activation, cherry pick confirmation [4]: inactive
Efficacy, p53 activation, primary screening [4]: inactive

O=C(c1ccc(O)c(O)c1)c1ccc(O)cc1O [2,3',4,4'-Tetrahydroxybenzophenone]
p53 activation efficacy, cherry pick confirmation [3]: inactive

CC(C)c1ccc2cc(C(C)C)ccc2c1 [2,6-Diisopropylnaphthalene]
Efficacy, p53 activation, cherry pick confirmation [2]: inactive
Efficacy, p53 activation, primary screening [2]: inactive
Efficacy, p53 activation, cherry pick confirmation [3]: inactive

CSc1ccc2c(c1)N(CCC1CCCCN1C)c1ccccc1S2 (centres unmarked) [Thioridazine hydrochloride]
EC50, p53 activation, cherry pick confirmation [2]: inactive
EC50, p53 activation, primary screening [2]: inactive
Efficacy, p53 activation, cherry pick confirmation [2]: inactive
Efficacy, p53 activation, primary screening [2]: inactive
Emax [3, 9]: 51.8%
Emax [3, 8]: 64.5%
EC50, p53 activation, cherry pick confirmation [4]: inactive
EC50, p53 activation, primary screening [4]: inactive
Efficacy, p53 activation, cherry pick confirmation [4]: inactive
Efficacy, p53 activation, primary screening [4]: inactive

Irinotecan hydrochloride
Efficacy, p53 activation, cherry pick confirmation [3]: 86.836
Efficacy, p53 activation, primary screening [3]: 70.7017
EC50 [3, 10]: 4.18 µM

O=C1CCCc2c1cc1ccc3cccc4ccc2c1c34 [9,10-Dihydrobenzo[a]pyren-7(8H)-one]
Viability EC50, HLM [1]: inactive
Viability EC50, No MS [1]: inactive
Viability EC50, RLM [1]: inactive
Viability Efficacy, HLM [1]: inactive
Viability Efficacy, No MS [1]: inactive
Viability Efficacy, RLM [1]: inactive
p53 activation EC50, RLM [2]: inactive
p53 activation Efficacy, RLM [2]: inactive
p53 activation EC50, HLM [4]: inactive
EC50 [4]: 9.29 µM
